Patent US8034940B2, “Modulators of glucocorticoid receptor, AP-1, and/or NF-κB activity and use thereof” (Bristol-Myers Squibb Company, priority 2006, dated 2011)

How the values were obtained:
[1] = molecular target: T1, human full-length glucocorticoid receptor (Homo sapiens, UniProt P04150); experiment: Glucocorticoid Receptor Binding Assay (II), fluorescence polarization, FITC-dexamethasone; design: recombinantly expressed human full-length glucocorticoid receptor; purchased PanVera Co., Madison P2816; details: GR Binding Assay (II); read-out: GR (Ki, nM) (GR Binding Assay (II))
T1 sequence (P04150 1-777): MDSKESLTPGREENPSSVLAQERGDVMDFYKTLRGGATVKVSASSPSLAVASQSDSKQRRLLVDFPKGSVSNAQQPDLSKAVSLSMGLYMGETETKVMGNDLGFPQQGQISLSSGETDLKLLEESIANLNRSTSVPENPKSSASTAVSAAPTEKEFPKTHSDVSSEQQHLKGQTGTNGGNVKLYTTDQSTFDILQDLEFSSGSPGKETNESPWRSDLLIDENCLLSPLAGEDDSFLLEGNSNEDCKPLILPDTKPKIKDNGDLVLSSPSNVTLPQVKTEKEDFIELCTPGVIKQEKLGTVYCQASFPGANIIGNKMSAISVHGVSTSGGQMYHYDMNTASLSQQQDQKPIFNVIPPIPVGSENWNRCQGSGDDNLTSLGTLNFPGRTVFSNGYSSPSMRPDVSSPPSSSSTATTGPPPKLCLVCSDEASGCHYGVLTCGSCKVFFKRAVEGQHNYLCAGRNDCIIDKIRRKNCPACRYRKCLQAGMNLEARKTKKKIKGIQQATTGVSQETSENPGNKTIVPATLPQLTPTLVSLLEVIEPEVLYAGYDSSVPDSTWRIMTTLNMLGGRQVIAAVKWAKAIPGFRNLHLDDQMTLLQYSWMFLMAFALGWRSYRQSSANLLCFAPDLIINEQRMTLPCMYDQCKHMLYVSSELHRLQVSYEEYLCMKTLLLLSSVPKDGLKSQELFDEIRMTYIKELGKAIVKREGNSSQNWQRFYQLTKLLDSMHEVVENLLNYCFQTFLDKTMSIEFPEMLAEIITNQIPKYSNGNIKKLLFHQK
Experimental: Glucocorticoid Receptor Binding Assay (II)^b
In order to measure the binding of compounds on the glucocorticoid receptor a commercially available kit was used (Glucocorticoid receptor competitor assay kit, PanVera Co., Madison, W1, P2816). Briefly, a cell lysate containing recombinantly expressed human full-length glucocorticoid receptor was mixed with a fluorescently labeled glucocorticoid (4 nM FITC-dexamethasone) plus or minus test molecule. After one hour at room temperature, the fluorescence polarization (FP) of the samples were measured. […] Test molecules were analyzed in the concentration range from 0.1 nM to 40 μM.

[2] = test system: AP-1 induced transcriptional activity; experiment: Cellular Transrepressional Assay (AP-1 luciferase reporter, PMA-activated A549 cells); type: cell-based; details: Homo sapiens, A549, 7 h, maximum inhibition, Cellular Transrepression Assay; read-out: AP-1 Max % inh (Cellular Transrepression Assay)
In short: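 Compounds tested from 0.1 nM to 40 μM during a 7 h PMA (10 ng/ml) stimulation of A549 cells stably transfected with 7× AP-1 sites driving luciferase. Repression expressed as % reduction of PMA-induced luminescence; EC50 by curve fitting.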

[3] = molecular target: T1, human full-length glucocorticoid receptor; experiment: Glucocorticoid Receptor Binding Assay (I), fluorescence polarization, Fluormone GS Red; design: purified human recombinant full-length glucocorticoid receptor; purchased Invitrogen Part #2893; details: GR Binding Assay (I); read-out: GR (Ki, nM) (GR Binding Assay (I))
In short: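 Fluorescence polarization competition: 2 nM purified full-length recombinant receptor with 1 nM Fluormone GS Red tracer, ±test compound over 8.5E-05 to 5 μM. Incubation was 2 h at room temperature in the dark before reading FP.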

## CC(C)(C(=O)Nc1nccs1)C1c2ccccc2CCc2ccccc21 [Example 25]
[1]
  Ki: 41.1 nM

## COc1ccc2c(c1)Oc1ccccc1[C@@H]2C(C)(C)C(=O)Nc1ncc[nH]1 [Example 61]
[1]
  Ki: 909 nM

## COc1ccc2c(c1)Oc1ccccc1[C@H]2C(C)(C)C(=O)Nc1nccs1 [Example 56]
[1]
  Ki: 233 nM

## COc1ccc2c(c1)Oc1ccccc1[C@@H]2C(C)(C)C(=O)Nc1nccs1 [Example 60]
[1]
  Ki: 35.7 nM

## COc1cccc2c1Oc1ccccc1C2C(C)(C)C(=O)Nc1nccs1 (stereo not drawn) [Example 84]
[1]
  Ki: 104 nM

## CC(C)Nc1ccc2c(n1)Oc1ccccc1C2C(C)(C)C(=O)Nc1nccs1 (stereo not drawn) [Example 157]
[1]
  Ki: 186 nM

## COc1ccc2c(c1)Oc1ccccc1[C@@H]2C(C)(C)C(=O)Nc1nncs1 [Example 62]
[1]
  Ki: 58 nM

## C[C@@H](Nc1ccc2c(n1)Oc1ccccc1[C@@H]2C(C)(C)C(=O)Nc1nncs1)c1ccccc1 [Example 143]
[1]
  Ki: 744 nM

## CC(C)(C(=O)Nc1nccs1)C1c2ccccc2Sc2ccccc21 [Example 9]
[1]
  Ki: 154 nM

## CC(C)(C(=O)Nc1nncs1)[C@H]1c2ccccc2Oc2nc(N3CCC(=O)CC3)ccc21 [Example 161]
[1]
  Ki: 36.6 nM

## Cc1cnc(NC(=O)C(C)(C)C2c3ccccc3Oc3ncccc32)s1 (stereo not drawn) [Example 69]
[1]
  Ki: 515 nM

## CC(C)(C(=O)Nc1nccs1)C1c2ccccc2Oc2c(O)cccc21 (stereo not drawn) [Example 81]
[1]
  Ki: 243 nM

## CC1CCCN(c2ccc3c(n2)Oc2ccccc2[C@@H]3C(C)(C)C(=O)Nc2nncs2)C1 (stereo partly drawn) [Example 150]
[1]
  Ki: 26.9 nM

## CCCCNc1ccc2c(c1)Oc1ncccc1C2C(C)(C)C(=O)Nc1nccs1 (stereo not drawn) [Example 155]
[1]
  Ki: 31.8 nM

## COC(=O)c1csc(NC(=O)C(C)(C)C2c3ccccc3Oc3cc(O)ccc32)n1 (stereo not drawn) [Example 99]
[1]
  Ki: 18.3 nM

## CN(C)c1ccc2c(n1)Oc1ccccc1[C@@H]2C(C)(C)C(=O)Nc1nncs1 [Example 149]
[1]
  Ki: 11 nM

## CC(C)(C(=O)Nc1nncs1)[C@H]1c2ccccc2Oc2nc(N3CCCC(c4ccccc4)C3)ccc21 (stereo partly drawn) [Example 147]
[1]
  Ki: 4030 nM

## CCOC(=O)c1csc(NC(=O)C(C)(C)C2c3ccccc3Oc3cc(OCOCCOC)ccc32)n1 (stereo not drawn) [Example 97]
[1]
  Ki: 296 nM

## CCOC(=O)c1csc(NC(=O)C(C)(C)C2c3ccccc3CCc3ccccc32)n1 [Example 23]
[1]
  Ki: 445 nM

## C[C@H](Nc1ccc2c(n1)Oc1ccccc1[C@@H]2C(C)(C)C(=O)Nc1nncs1)c1ccccc1 [Example 142]
[1]
  Ki: 156 nM

## Cc1nnc(NC(=O)C(C)(C)C2c3ccccc3Oc3ncccc32)s1 (stereo not drawn) [Example 71]
[1]
  Ki: 517 nM

## CC(C)(C(=O)Nc1ncns1)C1c2ccccc2Oc2ncccc21 (stereo not drawn) [Example 66]
[1]
  Ki: 665 nM

## Cc1csc(NC(=O)C(C)(C)[C@@H]2c3ccccc3Oc3cc(O)ccc32)n1 [Example 93]
[1]
  Ki: 1270 nM

## Cc1nc(NC(=O)C(C)(C)[C@@H]2c3ccccc3Oc3cc(O)ccc32)sc1C [Example 91]
[1]
  Ki: 2550 nM

## CC(C)(C(=O)Nc1nncs1)[C@H]1c2ccccc2Oc2cc(C#N)ccc21 [Example 112]
[1]
  Ki: 9.3 nM

## CC(C)(C(=O)Nc1nccs1)C1c2ccccc2Oc2nc(Cl)ccc21 (stereo not drawn) [Example 75]
[1]
  Ki: 29 nM

## CC(C)(C(=O)Nc1nc(Cc2ccccc2)cs1)C1c2ccccc2Oc2ccccc21 [Example 36]
[1]
  Ki: 1040 nM

## COc1ccc(-c2ccc3c(n2)Oc2ccccc2[C@H]3C(C)(C)C(=O)Nc2nncs2)cc1 [Example 162]
[1]
  Ki: 256 nM

## CC(C)(C(=O)Nc1nccs1)C1c2ccccc2Oc2ncccc21 (stereo not drawn) [Example 67]
[1]
  Ki: 107 nM

## CC(C)(C(=O)Nc1nncs1)C1c2ccccc2Oc2nc(Cl)ccc21 (stereo not drawn) [Example 76]
[1]
  Ki: 76.4 nM

## CC(C)(C(=O)Nc1nncs1)[C@@H]1c2ccccc2Oc2nc(N3CCC4(CC3)OCCO4)ccc21 [Example 135]
[1]
  Ki: 537 nM

## Cc1nc(NC(=O)C(C)(C)[C@H]2c3ccccc3Oc3cc(O)ccc32)sc1C [Example 86]
[1]
  Ki: 32.9 nM

## COc1ccc(CNc2ccc3c(n2)Oc2ccccc2[C@H]3C(C)(C)C(=O)Nc2nncs2)cc1 (racemic) [Example 136]
[1]
  Ki: 141 nM

## CCOC(=O)c1csc(NC(=O)C(C)(C)C2c3ccccc3Oc3cc(O)ccc32)n1 (stereo not drawn) [Example 96]
[1]
  Ki: 22.1 nM

## CC(C)(C(=O)Nc1nncs1)[C@@H]1c2ccccc2Oc2nc(N3CCCC3)ccc21 [Example 137]
[1]
  Ki: 221 nM

## CC(C)(C(=O)Nc1nncs1)[C@H]1c2ccccc2Oc2nc(N3CCCCCC3)ccc21 [Example 146]
[1]
  Ki: 37 nM

## CCOC(=O)c1csc(NC(=O)C(C)(C)C2c3ccccc3Oc3ncccc32)n1 (stereo not drawn) [Example 68]
[1]
  Ki: 820 nM

## CNc1ccc2c(n1)Oc1ccccc1C2C(C)(C)C(=O)Nc1nccs1 (stereo not drawn) [Example 127]
[1]
  Ki: 29.7 nM

## Cc1csc(NC(=O)C(C)(C)C2c3ccccc3Oc3ncccc32)n1 (stereo not drawn) [Example 70]
[1]
  Ki: 762 nM

## CC(C)(C(=O)Nc1nncs1)[C@H]1c2ccccc2Oc2nc(N3CCCCC3)ccc21 [Example 138]
[1]
  Ki: 11.4 nM

## CC(C)(C(=O)Nc1nncs1)[C@H]1c2ccccc2Oc2nc(-c3ccc(C(=O)N4CCC(S(C)(=O)=O)C4)cc3)ccc21 (stereo partly drawn) [Example 288]
[2]
  Emax: 35.5%
[3]
  Ki: 13.8 nM

## CN(CCO)C(=O)c1ccc(-c2ccc3c(n2)Oc2ccccc2[C@@H]3C(C)(C)C(=O)Nc2nncs2)cc1 [Example 294]
[2]
  Emax: 59.4%
[3]
  Ki: 29.3 nM

## CC(C)(C(=O)Nc1nccs1)[C@@H]1c2ccccc2Oc2cc(O)ccc21 [Example 94]
[1]
  Ki: 404 nM

## COC[C@H]1CCCN1c1ccc2c(n1)Oc1ccccc1[C@@H]2C(C)(C)C(=O)Nc1nncs1 [Example 145]
[1]
  Ki: 1160 nM

## CC(=O)N[C@@H]1CCN(C(=O)c2ccc(-c3ccc4c(n3)Oc3ccccc3[C@@H]4C(C)(C)C(=O)Nc3nncs3)cc2)C1 [Example 306]
[2]
  Emax: 43.5%
[3]
  Ki: 9.85 nM

## COCCOCOc1ccc2c(c1)Oc1ccccc1C2C(C)(C)C(=O)Nc1nccs1 (stereo not drawn) [Example 98]
[1]
  Ki: 88.7 nM

## CC(C)(C(=O)Nc1nccs1)C1c2ccccc2-c2ccc(O)cc21 (stereo not drawn) [Example 22]
[1]
  Ki: 1640 nM

## CC(C)(C(=O)Nc1nncs1)[C@@H]1c2ccccc2Oc2nc(N3CCCCC3)ccc21 [Example 134]
[1]
  Ki: 444 nM

## CC1CC(C)CN(C(=O)c2ccc(-c3ccc4c(n3)Oc3ccccc3[C@@H]4C(C)(C)C(=O)Nc3nncs3)cc2)C1 (stereo partly drawn) [Example 305]
[2]
  Emax: 38.3%
[3]
  Ki: 24.7 nM

## CC(=O)N1CCCN(C(=O)c2ccc(-c3ccc4c(n3)Oc3ccccc3[C@@H]4C(C)(C)C(=O)Nc3nncs3)cc2)CC1 [Example 277]
[2]
  Emax: 24.5%
[3]
  Ki: 81.3 nM

## CC(C)(C(=O)Nc1nncs1)[C@H]1c2ccccc2Oc2nc(NC(=O)c3ccccc3)ccc21 [Example 152]
[1]
  Ki: 10.9 nM

## Cc1cnc(NC(=O)C(C)(C)[C@@H]2c3ccccc3Oc3cc(O)ccc32)s1 [Example 92]
[1]
  Ki: 1200 nM

## COC1CN(C(=O)c2ccc(-c3ccc4c(n3)Oc3ccccc3[C@@H]4C(C)(C)C(=O)Nc3nncs3)cc2)C1 [Example 289]
[2]
  Emax: 24.3%
[3]
  Ki: 20 nM

## CC(C)(C(=O)Nc1nccs1)[C@H]1c2ccccc2Oc2nc(N3CCCCC3)ccc21 [Example 148]
[1]
  Ki: 11.1 nM

## CC(C)(C(=O)Nc1nncs1)[C@H]1c2ccccc2Oc2nc(-c3ccc(C(=O)N4CCC(C(F)(F)F)CC4)cc3)ccc21 [Example 290]
[2]
  Emax: 28.8%
[3]
  Ki: 20.4 nM

## CC(C)(C(=O)Nc1nccs1)C1c2ccccc2Oc2ccccc21 [Example 37]
[1]
  Ki: 1.4 nM

## CC(C)(C(=O)Nc1nncs1)[C@H]1c2ccccc2Oc2nc(-c3ccc(C(=O)N4CCCN(Cc5ccccc5)CC4)cc3)ccc21 [Example 298]
[2]
  Emax: 25.4%
[3]
  Ki: 242 nM

## COC(=O)[C@H]1CCCCN1C(=O)c1ccc(-c2ccc3c(n2)Oc2ccccc2[C@@H]3C(C)(C)C(=O)Nc2nncs2)cc1 [Example 291]
[2]
  Emax: 27%
[3]
  Ki: 44 nM

## CC1CN(C(=O)c2ccc(-c3ccc4c(n3)Oc3ccccc3[C@@H]4C(C)(C)C(=O)Nc3nncs3)cc2)CC(C)O1 (stereo partly drawn) [Example 273]
[2]
  Emax: 21%
[3]
  Ki: 19.9 nM
